Measured values reported in US11584744B2 (UNIVERSITY OF WASHINGTON, priority 2017, dated 2023).
pEC50, pIC50: −log10 of the molar value. ≈ marks a conversion by molar mass, not a printed value. Where “and” joins values, the source holds several entries; their conditions need not be identical. Equal values may be shown once. Read-outs that look alike come from different tables or passages of the source.

What was measured:
T. cruzi = T. cruzi growth inhibition; assay type: cell-based, Trypanosoma cruzi; details: read-out: (E) T. cruzi EC50
[1] = system: E. faecium VRE (ATCC 51559); assay: MIC susceptibility testing; assay type: cell-based, Enterococcus faecium; details: E. faecium ATCC 51559; for MIC: Enterococcus faecium, read-out: (I) E. faecium (ATCC 51559) MIC
From the text: Media and culture conditions. Mueller Hinton broth (MHB), cation adjusted Mueller Hinton broth (CA-MHB), and Brain Heart Infusion broth (BHI) were purchased from Becton Dickinson (Franklin Lakes, N.J.). Tryptic soy agar (TSA) plates, TSA with 5% sheep blood plates, and CA-MHB with 3% laked horse blood were purchased from Remel (San Diego, Calif.). MHB was used to assay all Staphylococcus aureus strains. CA-MHB was used for Staphylococcus epidermidis, Enterococcus faecalis, Enterococcus faecium, Escherichia coli, and Pseudomonas aeruginosa. CA-MHB supplemented with 3% laked horse blood was used for Streptococcus pneumoniae and Streptococcus pyogenes. Staphylococcus, Enterococcus, Escherichia, and Pseudomonas strains were cultured at 37° C. with ambient air. Streptococcus strains were cultured in 37° C. with 5% CO2. Separate conditions for radiolabeled precursor uptake assays are described below.
Susceptibility testing: Minimum inhibitory concentration (MIC) determinations were performed in triplicate in 96-well round bottom microtiter plates (Corning, Corning N.Y.) as described by the Clinical and Laboratory Standards Institute (CLSI). Serial two-fold dilutions of compounds were added to plates in 50 μL volumes. An additional 50 μL of media containing bacterial cells (1×10^6 CFUs/mL) was then added to each well. Maximum DMSO concentrations were 0.5%. Plates were incubated at 37° C. for at least 18 h before reading the susceptibility result by optical absorbance (OD600) using a BioTek ELx800. The lowest concentration causing ≥90% growth inhibition compared to the untreated control was recorded as the MIC (and also corresponded to the visual MIC). MICs were measured at least twice and the higher value (if different) was recorded herein.

C. parvum = C. parvum growth inhibition; assay type: cell-based, Cryptosporidium parvum; details: Cryptosporidium parvum; read-out: (J) C. parvum EC50
MetRS (C. parvum) = MetRS (C. parvum) (Cryptosporidium parvum, UniProt Q5CVN0); assay: MetRS (C. parvum) enzyme inhibition; assay type: biochemical; details: read-out: (C) MetRS (C. parvum) IC50
Chain of MetRS (C. parvum) (Q5CVN0 entry or part of it): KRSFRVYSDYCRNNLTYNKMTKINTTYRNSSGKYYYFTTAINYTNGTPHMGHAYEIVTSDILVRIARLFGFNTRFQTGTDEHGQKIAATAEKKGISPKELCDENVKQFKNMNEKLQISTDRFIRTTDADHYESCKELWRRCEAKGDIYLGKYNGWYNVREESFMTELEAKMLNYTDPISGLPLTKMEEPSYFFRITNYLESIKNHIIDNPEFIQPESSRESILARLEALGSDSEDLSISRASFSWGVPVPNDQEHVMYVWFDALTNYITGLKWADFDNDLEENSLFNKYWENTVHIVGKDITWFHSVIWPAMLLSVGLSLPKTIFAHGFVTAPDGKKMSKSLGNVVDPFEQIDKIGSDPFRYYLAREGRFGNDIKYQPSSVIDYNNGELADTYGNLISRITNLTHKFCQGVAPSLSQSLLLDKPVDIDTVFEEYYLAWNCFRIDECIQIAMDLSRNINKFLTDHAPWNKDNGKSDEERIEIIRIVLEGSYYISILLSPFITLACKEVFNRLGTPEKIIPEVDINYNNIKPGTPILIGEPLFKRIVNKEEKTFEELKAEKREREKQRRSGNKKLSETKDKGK

[2] = system: S. aureus MRSA (ATCC 33591); assay: MIC susceptibility testing; assay type: cell-based, Staphylococcus aureus; details: Staphylococcus aureus, MRSA ATCC33591; read-out: (G) MRSA (ATCC33591) MIC
Method in brief: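 CLSI broth microdilution in triplicate, 5×10^5 CFU/mL final, ≤0.5% DMSO; MHB for S. aureus, CA-MHB for E. coli and E. faecium, CA-MHB plus 3% laked horse blood for S. pyogenes (5% CO2).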

[3] = system: S. aureus MSSA (ATCC 29213); assay: MIC susceptibility testing; assay type: cell-based, Staphylococcus aureus; details: S. aureus ATCC 29213; for MIC: Staphylococcus aureus, read-out: (F) S. aureus (ATCC 29213) MIC
MetRS (T. brucei) = target: T1, MetRS (T. brucei) (Trypanosoma brucei brucei, UniProt Q38C91); assay: MetRS (T. brucei) enzyme inhibition; assay type: biochemical
T1 sequence (Q38C91 1-773): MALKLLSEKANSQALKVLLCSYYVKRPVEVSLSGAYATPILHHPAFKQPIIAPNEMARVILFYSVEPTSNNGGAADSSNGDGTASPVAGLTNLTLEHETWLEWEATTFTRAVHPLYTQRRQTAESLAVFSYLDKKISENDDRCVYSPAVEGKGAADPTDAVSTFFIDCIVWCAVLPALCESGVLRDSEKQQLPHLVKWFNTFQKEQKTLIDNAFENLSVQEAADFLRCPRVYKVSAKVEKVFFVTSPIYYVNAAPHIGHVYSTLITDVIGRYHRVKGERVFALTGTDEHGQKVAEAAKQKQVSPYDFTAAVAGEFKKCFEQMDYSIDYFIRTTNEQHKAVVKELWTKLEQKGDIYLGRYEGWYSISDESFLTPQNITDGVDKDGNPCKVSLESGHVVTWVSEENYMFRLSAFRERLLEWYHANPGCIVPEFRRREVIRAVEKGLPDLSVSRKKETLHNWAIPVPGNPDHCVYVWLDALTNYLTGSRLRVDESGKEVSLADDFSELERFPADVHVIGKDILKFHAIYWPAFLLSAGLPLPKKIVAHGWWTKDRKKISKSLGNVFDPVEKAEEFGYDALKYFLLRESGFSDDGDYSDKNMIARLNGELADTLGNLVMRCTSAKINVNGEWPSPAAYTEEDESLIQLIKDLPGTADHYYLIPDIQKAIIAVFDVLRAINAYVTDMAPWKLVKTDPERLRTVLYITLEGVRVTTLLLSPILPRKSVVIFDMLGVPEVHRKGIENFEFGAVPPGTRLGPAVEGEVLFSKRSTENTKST

T. brucei = T. brucei growth inhibition; assay type: cell-based, Trypanosoma brucei; details: read-out: (D) T. brucei EC50

**Q.** What does the source list for `COc1cc(Cl)c(-c2cnn3c2CN(Cc2nc4nc(Cl)ccc4[nH]2)CC3)cc1OC` [Compound 2205, 5-chlor0-2-((3-(2-chloro-4,5-dimethoxyphenyl)-6,7-dihydropyrazolo[1,5-a]pyrazin-5(4H)-yl)methyl)-1H-imidazo[4,5-b]pyridine]?
**A.** pEC50 (T. cruzi; Trypanosoma cruzi): 6.96; MIC [1]: 0.0839 µg/mL (≈ 0.183 µM); pEC50 (C. parvum): < 5.70; pIC50 (MetRS (C. parvum)): 7.19; MIC [2]: 0.265 µg/mL (≈ 0.577 µM); (F) S. aureus (ATCC 29213) MIC [3]: 0.441, μg/ml and 0.450 μg/ml; MIC [3]: 0.652 µg/mL (≈ 1.42 µM); pIC50 (MetRS (T. brucei)): > 7.40; pEC50 (T. brucei; Trypanosoma brucei): 7.91

**Q.** What does the source list for `CCn1c(Cc2ccc(Cl)cc2Cl)cn(Cc2nc3ccc(Cl)c(C#N)c3[nH]2)c1=O` [Compound 2210, 6-chlor0-2-({4-[(2,4-dichlorophenyl)methyl]-3-ethyl-2-oxo-2,3-dihydro-1H-imidazol-1-yl}methyl)-1H-1,3-benzodiazole-7-carbonitrile]?
**A.** pEC50 (T. cruzi; Trypanosoma cruzi): 6.97; MIC [1]: 0.166 µg/mL (≈ 0.36 µM); pEC50 (C. parvum): < 5.70; pIC50 (MetRS (C. parvum)): > 7.40; MIC [2]: 0.298 µg/mL (≈ 0.647 µM); MIC [3]: 0.285 µg/mL (≈ 0.619 µM); pIC50 (MetRS (T. brucei)): > 7.40; pEC50 (T. brucei; Trypanosoma brucei): 8.17

**Q.** With `CC(C)(O)Cn1c(Cc2ccc(Cl)cc2Cl)cn(Cc2nc3ccc(Cl)nc3[nH]2)c1=O` [Compound 2211, 1-((5-chloro-3H-imidazo[4,5-b]pyridin-2-yl)methyl)-4-(2,4-dichlorobenzyl)-3-(2-hydroxy-2-methylpropyl)-1,3-dihydro-2H-imidazol-2-one] as the molecule, how does the pEC50 (T. cruzi; Trypanosoma cruzi) read?
**A.** The pEC50 was 7.66.

**Q.** What about the pEC50 (T. cruzi) of the same molecule?
**A.** Its pEC50 is 7.66.

**Q.** What about the “(I) E. faecium (ATCC 51559) MIC” value [1] of the same molecule?
**A.** Its value is 0.281 µg/mL.

**Q.** And the MIC [1]?
**A.** The MIC was 0.389 µg/mL (≈ 0.809 µM).

**Q.** What about the pEC50 (C. parvum) of the same molecule?
**A.** Its pEC50 is 5.93.

**Q.** What about the pIC50 (MetRS (C. parvum)) of the same molecule?
**A.** The pIC50 was 7.30.

**Q.** And the MIC [2]?
**A.** The MIC was 0.489 µg/mL (≈ 1.02 µM).

**Q.** And the “(F) S. aureus (ATCC 29213) MIC” value [3]?
**A.** Its value is 0.590 µg/mL.

**Q.** What about the MIC [3] of the same molecule?
**A.** The MIC was 0.493 µg/mL (≈ 1.03 µM).

**Q.** What about the pIC50 (MetRS (T. brucei)) of the same molecule?
**A.** Its pIC50 is over 7.40.

**Q.** And the pEC50 (T. brucei; Trypanosoma brucei)?
**A.** Its pEC50 is over 9.04.

**Q.** And the pEC50 (T. brucei)?
**A.** The pEC50 was 8.94.

**Q.** `O=c1n(Cc2nc3ccc(Cl)nc3[nH]2)cc(Cc2ccc(Cl)cc2Cl)n1CCO` [Compound 2213, 1-({5-chloro-1H-imidazo[4,5-b]pyridin-2-yl}methyl)-4-[(2,4-dichlorophenyl)-methyl]-3-(2-hydroxyethyl)-2,3-dihydro-1H-imidazol-2-one] was tested. Which pEC50 (T. cruzi; Trypanosoma cruzi) did it give?
**A.** Its pEC50 is 7.20.

**Q.** What about the pEC50 (T. cruzi) of the same molecule?
**A.** Its pEC50 is 7.15.

**Q.** And the MIC [1]?
**A.** The MIC was 0.272 µg/mL (≈ 0.601 µM).

**Q.** What about the pEC50 (C. parvum) of the same molecule?
**A.** The pEC50 was 5.72.

**Q.** And the pIC50 (MetRS (C. parvum))?
**A.** Its pIC50 is over 7.40.

**Q.** And the MIC [2]?
**A.** Its MIC is 0.52 µg/mL (≈ 1.15 µM).

**Q.** What about the “(F) S. aureus (ATCC 29213) MIC” value [3] of the same molecule?
**A.** Its value is 0.574 µg/mL.

**Q.** What about the MIC [3] of the same molecule?
**A.** The MIC was 0.422 µg/mL (≈ 0.932 µM).

**Q.** And the pIC50 (MetRS (T. brucei))?
**A.** Its pIC50 is over 7.40.

**Q.** And the pEC50 (T. brucei; Trypanosoma brucei)?
**A.** Its pEC50 is 8.67.

**Q.** What does the source list for `CCOC(=O)Cn1c(C(=O)c2ccc(Cl)cc2Cl)cn(Cc2nc3ccc(Cl)nc3[nH]2)c1=O` [Compound 2215, ethyl 2-[3-({5-chloro-1H-imidazo[4,5-b]pyridin-2-yl}methyl)-5-(2,4-dichlorobenzoyl)-2-oxo-2,3-dihydro-1H-imidazol-1-yl]acetate]?
**A.** pEC50 (T. cruzi; Trypanosoma cruzi): 7.83; pEC50 (T. cruzi): 7.60; MIC [1]: 0.272 µg/mL (≈ 0.535 µM); pEC50 (C. parvum): < 5.70; pIC50 (MetRS (C. parvum)): > 7.40; MIC [2]: 0.26 µg/mL (≈ 0.511 µM); MIC [3]: 0.298 µg/mL (≈ 0.586 µM); pIC50 (MetRS (T. brucei)): > 7.40; pEC50 (T. brucei; Trypanosoma brucei): > 9.04; pEC50 (T. brucei): 9.34

**Q.** With `COc1ccc(-c2cccc3c2CN(Cc2nc4nc(Cl)ccc4[nH]2)C3)c(Cl)c1` [Compound 2224, 5-chlor0-2-((4-(2-chloro-4-methoxyphenyl)isoindolin-2-yl)methyl)-1H-imidazo[4,5-b]pyridine] as the molecule, how does the pEC50 (T. cruzi; Trypanosoma cruzi) read?
**A.** Its pEC50 is 6.76.

**Q.** What about the MIC [1] of the same molecule?
**A.** Its MIC is 0.995 µg/mL (≈ 2.34 µM).

**Q.** And the pEC50 (C. parvum)?
**A.** Its pEC50 is under 5.70.

**Q.** What about the pIC50 (MetRS (C. parvum)) of the same molecule?
**A.** The pIC50 was over 7.40.

**Q.** What about the MIC [2] of the same molecule?
**A.** Its MIC is 1.17 µg/mL (≈ 2.75 µM).

**Q.** What about the “(F) S. aureus (ATCC 29213) MIC” value [3] of the same molecule?
**A.** The value was 1.37 µg/mL.

**Q.** What about the MIC [3] of the same molecule?
**A.** Its MIC is 1.07 µg/mL (≈ 2.52 µM).

**Q.** And the pIC50 (MetRS (T. brucei))?
**A.** The pIC50 was 7.28.

**Q.** What about the pEC50 (T. brucei; Trypanosoma brucei) of the same molecule?
**A.** The pEC50 was 7.63.
